# Biological target: POLRMT (Homo sapiens (Human), UniProt O00411)
# Experiment: homogeneous TR-FRET assay of mitochondrial transcription (inhibition of POLRMT)
# Assay type: biochemical
# Details: 7.5 nM POLRMT, 15 nM TFB2M, 30 nM TFAM, 0.5 nM DNA template, 500 μM NTPs, 37° C. for 60 minutes
# Description: The ability of some compounds of the present invention to inhibit POLRMT were determined in a homogeneous TR-FRET Assay using high-throughput screening in a 384-well plate format. […] Detection of the product is facilitated by hybridization of two DNA-oligonucleotide probes to specific and adjacent sequences within the RNA product sequence. Upon annealing of the probes, two fluorophores are coupled directly to an acceptor nucleotide probe (ATTO647, 5′), or introduced via a coupled streptavidin with a biotinylated donor nucleotide probe (Europium cryptate) that is brought into sufficient proximity to serve as a fluorescence-donor-acceptor pair. Thus, a FRET signal at 665 nm is generated upon excitation at 340 nm.
# The DNA template is restriction linearized proximal to the promotor 3′-end (pUC-LSP). […] No nucleotide triphosphate mix is added to negative control samples. Microplates with compounds to be tested in the assay are prepared from 10 mM compound stocks in 100% DMSO, equal amounts of DMSO without any compound are added to positive control and negative control samples.
# During the incubation, a mix of the detection reagents is prepared in a buffer such that the enzymatic reaction is terminated due to chelating of Mg-ions and increased ionic strength, containing 50 mM Tris-HCl (pH 7.5), 700 mM NaCl, 20 mM EDTA, and 0.01% (w/v) Tween-20. Europium-streptavidin is pre-incubated with a 200-fold molar excess of a random sequence oligonucleotide to block unspecific binding of oligo, for two hours at ambient temperature in the dark. Afterwards, the blocked Europium-streptavidin is kept on ice until use.
# At the end of the enzymatic reaction time, 5 μL detection oligo mix in the detection buffer is added, and assay plates are mixed and kept at ambient temperature for one hour, protected from light. The concentration of the Acceptor nucleotide oligo (e.g., ATTO647N-5′-[…]-3′) and Donor nucleotide oligo (e.g., bio-5′-[…](-bio)[…]-bio-3′) in each assay well is 1 nM, and 3 nM, respectively.
# After incubation with oligo mix, 5 μL of pre-blocked Europium-streptavidin reagent is dispensed to each assay well, assay plates are again mixed and kept at ambient temperature for one hour, protected from light.
# The generated signal is measured with BMG Pherastar microtiter plate reader with a TRF light unit, using excitation at 340 nm, an integration time of 200 μs, and a delay time of 100 μs, before detection at 620 nm and 665 nm. The ratio of donor- and acceptor-fluorescence is used as a measure of the generated transcript product (i.e. enzymatic activity).
# Sequence of POLRMT (O00411 42-1230): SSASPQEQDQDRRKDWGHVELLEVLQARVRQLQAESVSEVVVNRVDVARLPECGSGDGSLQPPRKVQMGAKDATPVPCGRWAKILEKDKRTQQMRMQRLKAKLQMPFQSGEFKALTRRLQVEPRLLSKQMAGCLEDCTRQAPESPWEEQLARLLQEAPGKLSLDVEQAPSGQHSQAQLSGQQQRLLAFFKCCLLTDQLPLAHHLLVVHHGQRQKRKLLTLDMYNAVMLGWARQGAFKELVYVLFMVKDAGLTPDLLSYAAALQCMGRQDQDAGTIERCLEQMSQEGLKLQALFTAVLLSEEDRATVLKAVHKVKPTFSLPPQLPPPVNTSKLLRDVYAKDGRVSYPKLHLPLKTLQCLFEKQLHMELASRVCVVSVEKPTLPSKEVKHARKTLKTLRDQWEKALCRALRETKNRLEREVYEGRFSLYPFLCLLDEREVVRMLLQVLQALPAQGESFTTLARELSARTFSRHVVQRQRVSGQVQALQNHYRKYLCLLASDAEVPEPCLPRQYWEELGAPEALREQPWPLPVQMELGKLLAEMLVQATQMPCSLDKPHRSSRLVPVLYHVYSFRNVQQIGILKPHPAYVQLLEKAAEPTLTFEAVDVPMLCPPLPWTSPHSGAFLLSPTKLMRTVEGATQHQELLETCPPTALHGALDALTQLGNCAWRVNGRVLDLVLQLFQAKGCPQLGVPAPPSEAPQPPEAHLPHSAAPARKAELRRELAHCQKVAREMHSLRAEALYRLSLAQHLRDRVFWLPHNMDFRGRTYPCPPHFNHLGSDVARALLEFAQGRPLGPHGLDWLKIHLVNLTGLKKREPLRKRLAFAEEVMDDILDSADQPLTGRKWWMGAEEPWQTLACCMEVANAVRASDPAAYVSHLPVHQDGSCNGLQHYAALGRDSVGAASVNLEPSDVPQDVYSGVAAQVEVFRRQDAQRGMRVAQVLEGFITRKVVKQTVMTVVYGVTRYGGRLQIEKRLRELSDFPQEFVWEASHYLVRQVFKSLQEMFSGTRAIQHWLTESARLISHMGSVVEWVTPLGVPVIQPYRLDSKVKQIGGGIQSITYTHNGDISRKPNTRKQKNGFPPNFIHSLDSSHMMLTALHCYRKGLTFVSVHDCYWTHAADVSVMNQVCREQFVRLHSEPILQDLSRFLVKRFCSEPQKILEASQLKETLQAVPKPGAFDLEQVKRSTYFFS
row,IC50 [nM],Compound
1,3000,"COC(=O)CC(C)c1ccc2c(-c3ccccc3C)cc(=O)oc2c1 (centres unmarked) [Example 58, methyl 3-(2-oxo-4-(o-tolyl)-2H-chromen-7-yl)butanoate]"
2,300,"Cc1ccccc1-c1cc(=O)oc2cc(N(C)Cc3ccc(=O)[nH]c3)ccc12 [Example 209, 5-((methyl(2-oxo-4-(o-tolyl)-2H-chromen-7-yl)amino)methyl)pyridin-2 (1H)-one]"
3,5000,"CC(=O)NC1CCN(C(=O)c2ccc3c(-c4ccccc4C)cc(=O)oc3c2)CC1 [Example 109, N-(1-(2-oxo-4-(o-tolyl)-2H-chromene-7-carbonyl)piperidin-4-yl)acetamide]"
4,10000,"CN(CC(=O)O)c1ccc2c(-c3ccccc3)cc(=O)oc2c1 [Example 101, N-methyl-N-(2-oxo-4-phenyl-2H-chromen-7-yl)glycine]"
5,5000,"Cc1ccccc1-c1cc(=O)oc2cc(NCc3ncco3)ccc12 [Example 166, 7-((oxazol-2-ylmethyl)amino)-4-(o-tolyl)-2H-chromen-2-one]"
6,3000,"Cc1ccccc1-c1cc(=O)oc2cc(CC(C)C(=O)N3CCCCC3)ccc12 (single isomer, unassigned) [Example 63, 7-(2-methyl-3-oxo-3-(piperidin-1-yl)propyl)-4-(o-tolyl)-2H-chromen-2-one]"
7,600,"CC[C@H](Nc1ccc2c(-c3ccccc3C)cc(=O)oc2c1)C(N)=O [Example 212, (S)-2-((2-oxo-4-(o-tolyl)-2H-chromen-7-yl)amino)butanamide]"
8,200,"Cc1ccccc1-c1cc(=O)oc2cc(N(C)CC(=O)NCCO)ccc12 [Example 219, N-(2-hydroxyethyl)-2-(methyl(2-oxo-4-(o-tolyl)-2H-chromen-7-yl)amino)acetamide]"
9,100,"C[C@@H](Nc1ccc2c(-c3ccc(F)cc3Cl)cc(=O)oc2c1)C(=O)N1CCCCC1 [Example 27, (R)-4-(2-chloro-4-fluorophenyl)-7-((1-oxo-1-(piperidin-1-yl)propan-2-yl)amino)-2H-chromen-2-one]"
10,2000,"Cc1ccccc1-c1cc(=O)oc2cc(C(=O)NC3CCCC3)ccc12 [Example 36, N-cyclopentyl-2-oxo-4-(o-tolyl)-2H-chromene-7-carboxamide]"
11,36000,"Cc1ccccc1-c1cc(=O)oc2cc(C(=O)N(C)Cc3nccn3C)ccc12 [Example 114, N-methyl-N-((1-methyl-1H-imidazol-2-yl)methyl)-2-oxo-4-(o-tolyl)-2H-chromene-7-carboxamide]"
12,90,"CCOC(=O)[C@H]1CCCN(C(=O)C(C)Cc2ccc3c(-c4ccccc4C)cc(=O)oc3c2)C1 (single isomer, unassigned) [Example 88]"
13,300,"COC(=O)/C=C(\C)c1ccc2c(-c3ccccc3C)cc(=O)oc2c1 [Example 57, methyl (E)-3-(2-oxo-4-(o-tolyl)-2H-chromen-7-yl)but-2-enoate]"
14,500,"COCc1cc(C)c2c(-c3ccccc3C)cc(=O)oc2c1 [Example 163, 7-(methoxymethyl)-5-methyl-4-(o-tolyl)-2H-chromen-2-one]"
15,8000,"Cc1ccccc1-c1cc(=O)oc2cc([C@@H]3C[C@H]3C(=O)N(C)C)ccc12 (relative stereo) [Example 240, chiral-(trans)-N,N-dimethyl-2-(2-oxo-4-(o-tolyl)-2H-chromen-7-yl)cyclopropane-1-carboxamide]"
16,50,"Cc1ccccc1-c1cc(=O)oc2cc(N(C)Cc3ccn[nH]3)ccc12 [Example 178, 7-(((1H-pyrazol-5-yl)methyl)(methyl)amino)-4-(o-tolyl)-2H-chromen-2-one]"
17,400,Cc1ccccc1-c1cc(=O)oc2cc(N(C)CC(C)C(=O)O)ccc12 (centres unmarked) [Example 155-2]
18,400,"CN(CCC(=O)O)c1ccc2c(-c3ccc(F)cc3Cl)cc(=O)oc2c1 [Example 130, 3-((4-(2-chloro-4-fluorophenyl)-2-oxo-2H-chromen-7-yl)(methyl)amino)propanoic acid]"
19,3000,"Cc1ccccc1-c1cc(=O)oc2cc(NCc3nnn[nH]3)ccc12 [Example 184, 7-(((1H-tetrazol-5-yl)methyl)amino)-4-(o-tolyl)-2H-chromen-2-one]"

row,IC50 [nM],Compound
1,600,"O=C(OCc1ccc2c(-c3ccc(F)cc3Cl)cc(=O)oc2c1)N1CCCCC1 [Example 38, (4-(2-chloro-4-fluorophenyl)-2-oxo-2H-chromen-7-yl)methyl piperidine-1-carboxylate]"
2,100,"Cc1ccccc1-c1cc(=O)oc2cc(N(C)CCC(=O)O)ccc12 [Example 144, 3-(methyl(2-oxo-4-(o-tolyl)-2H-chromen-7-yl)amino)propanoic acid]"
3,80,"Cc1ccccc1-c1cc(=O)oc2cc(N(C)Cc3ncco3)ccc12 [Example 188, 7-(methyl(oxazol-2-ylmethyl)amino)-4-(o-tolyl)-2H-chromen-2-one]"
4,50,"C[C@H](C(=O)N1CCCCC1)N(C)c1ccc2c(-c3ccc(F)cc3Cl)cc(=O)oc2c1 [Example 45, (R)-4-(2-chloro-4-fluorophenyl)-7-(methyl(1-oxo-1-(piperidin-1-yl)propan-2-yl)amino)-2H-chromen-2-one]"
5,1000,"COCc1ccc2c(-c3ccc(F)cc3Cl)cc(=O)oc2c1 [Example 16, 4-(2-chloro-4-fluorophenyl)-7-(methoxymethyl)-2H-chromen-2-one]"
6,900,"Cc1ccccc1-c1cc(=O)oc2cc(NCC(=O)OC(C)(C)C)ccc12 [Example 61, tert-butyl (2-oxo-4-(o-tolyl)-2H-chromen-7-yl)glycinate]"
7,100,"Cc1ccccc1-c1cc(=O)oc2cc(N(C)Cc3ccn(C)n3)ccc12 [Example 125, 7-(methyl((1-methyl-1H-pyrazol-3-yl)methyl)amino)-4-(o-tolyl)-2H-chromen-2-one]"
8,3000,"Cc1ccccc1-c1cc(=O)oc2cc(CC(C#N)CO)ccc12 (centres unmarked) [Example 200, 3-hydroxy-2-((2-oxo-4-(o-tolyl)-2H-chromen-7-yl)methyl)propanenitrile]"
9,400,"CC(=O)Nc1ccc2c(-c3ccccc3C)cc(=O)oc2c1 [Example 32, N-(2-oxo-4-(o-tolyl)-2H-chromen-7-yl)acetamide]"
10,50,"Cc1ccccc1-c1cc(=O)oc2cc(N(C)Cc3ccccc3)ccc12 [Example 126, 7-[benzyl(methyl)amino]-4-(o-tolyl) chromen-2-one]"
11,2000,"Cc1ccccc1-c1cc(=O)oc2cc(C(=O)N(C)C)ccc12 [Example 34, N,N-dimethyl-2-oxo-4-(o-tolyl)-2H-chromene-7-carboxamide]"
12,2000,"Cc1ccccc1-c1cc(=O)oc2cc([C@H]3C[C@H]3C(N)=O)ccc12 (relative stereo) [Example 235, (cis)-2-(2-oxo-4-(o-tolyl)-2H-chromen-7-yl)cyclopropane-1-carboxamide]"
13,2000,"Cc1ccccc1-c1cc(=O)oc2cc(NCC(=O)N3CCC[C@H](C(=O)O)C3)ccc12 [Example 79, (S)-1-((2-oxo-4-(o-tolyl)-2H-chromen-7-yl)glycyl)piperidine-3-carboxylic acid]"
14,300,"CCOC(=O)[C@@H]1C[C@@H]1c1ccc2c(-c3ccccc3C)cc(=O)oc2c1 [Example 224, ethyl (1R,2S)-2-(2-oxo-4-(o-tolyl)-2H-chromen-7-yl)cyclopropane-1-carboxylate]"
15,> 100000,"CC(=O)N(C)CC1CCN(C(=O)c2ccc3c(-c4ccccc4C)cc(=O)oc3c2)C1 (centres unmarked) [Example 205, N-methyl-N-((1-(2-oxo-4-(o-tolyl)-2H-chromene-7-carbonyl)pyrrolidin-3-yl)methyl)acetamide]"
16,200,"Cc1ccccc1-c1cc(=O)oc2cc(N(C)[C@@H](C)CC(=O)O)ccc12 [Example 228, (S)-3-(methyl(2-oxo-4-(o-tolyl)-2H-chromen-7-yl)amino)butanoic acid]"
17,900,"Cc1ccccc1-c1cc(=O)oc2cc([C@@H]3C[C@H]3C(N)=O)ccc12 (relative stereo) [Example 239, chiral-(trans)-2-(2-oxo-4-(o-tolyl)-2H-chromen-7-yl)cyclopropane-1-carboxamide]"
18,200,"Cc1ccccc1-c1cc(=O)oc2cc(N(C)CC(=O)NCC(N)=O)ccc12 [Example 134, N-(2-amino-2-oxoethyl)-2-(methyl(2-oxo-4-(o-tolyl)-2H-chromen-7-yl)amino)acetamide]"
19,7000,"CCOC(=O)[C@H]1CCCN(C(=O)N(C)Cc2ccc3c(-c4ccc(F)cc4Cl)cc(=O)oc3c2)C1 [Example 07, ethyl (S)-1-(((4-(2-chloro-4-fluorophenyl)-2-oxo-2H-chromen-7-yl)methyl)(methyl)carbamoyl)piperidine-3-carboxylate]"
